Source: US6294555A, “1-[(1-Substituted-4-piperidinyl)methyl]-4-piperidine derivative, process for producing the same, medicinal compositions containing the same and intermediates of these compounds” (Dainippon Pharmaceutical Co., Ltd., priority 1998, dated 2001)

Tests used:
[1] = molecular target: T1, Serotonin 4 (5-HT4) Receptors (Cavia porcellus, UniProt O70528); experiment: Binding Assay on Serotonin 4 (5-HT4) Receptors ([3H]-GR113808, striatum membrane fractions); parameters: species or system guinea pig (Std-Hartley); conditions: 50% inhibition of specific binding of 0.1 nM [3H]-GR113808; 37° C., 30 min; test compounds are fumarates except numbers marked ** (62, 72, 74: free bases)
T1 construct: the striatum was dissected; from tissue; host or cells: guinea pig (Std-Hartley) brain striatum, membrane fractions
T1 sequence (O70528 whole entry): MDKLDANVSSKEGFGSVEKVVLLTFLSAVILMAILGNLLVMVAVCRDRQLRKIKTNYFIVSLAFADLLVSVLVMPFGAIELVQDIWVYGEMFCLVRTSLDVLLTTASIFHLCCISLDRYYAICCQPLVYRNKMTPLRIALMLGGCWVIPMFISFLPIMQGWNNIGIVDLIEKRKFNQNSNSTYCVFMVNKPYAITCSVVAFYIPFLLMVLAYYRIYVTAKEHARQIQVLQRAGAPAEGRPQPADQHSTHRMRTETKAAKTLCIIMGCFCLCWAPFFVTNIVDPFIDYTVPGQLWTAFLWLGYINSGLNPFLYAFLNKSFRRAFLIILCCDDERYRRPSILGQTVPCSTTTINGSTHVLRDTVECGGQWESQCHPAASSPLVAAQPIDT
Protocol: Std-Hartley guinea pigs weighing 300-400 g were decapitated, and the brain thereof was immediately taken out, and the striatum was dissected. To the tissue thus obtained was added 15-times volume of Hepes buffer (50 mM, pH7.4, 4° C.), homogenized in a Teflon homogenizer, and centrifuged at 48,000×g at 4° C. for 15 minutes. The pellet was suspended in the same Hepes buffer in a volume of 1 ml per 30 mg of the wet tissues to give receptor membrane fractions.
The reaction was terminated by rapid vacuum filtration and washing (3×4 ml) with ice-cold 50 mM Tris-HCl buffer (pH 7.7) through Whatman GF/B filter paper using a Brandel cell harvester. Prior to the filtration, the filter to be used was presoaked in a 0.1% solution of polyethylenimine for one hour. The radioactivity on the filter was determined with by ACS-II scintillation cocktail by a liquid scintillation counter.

[2] = test system: Mice of Std-ddY strain (evacuation); experiment: Assay on Evacuation in Mice (fecal pellets, oral); type: in vivo, mouse (Std-ddY, male); parameters: key: -: Inactive; +: Moderately stimulated (P<0.05); ++: Markedly stimulated (p<0.01); conditions: 1 mg/kg oral; fecal pellets at 30, 60 and 120 minutes; Dunnett's test; fumarates except numbers marked ** (25, 86: free bases)
Protocol: Male mice of Std-ddY strain weighing 25-30 g were used. Free access to food and water was allowed up to the beginning of the procedure.
The mice (each group: five mice) were placed in a mesh bottom cage for fasting, and they were allowed for acclimation to new environment for about one hour prior to the start of the experiment. A test compound, which was previously suspended in the 0.5% tragacanth solution, was administered orally to the mice at a dose of 1 mg/kg. The fecal pellets were counted and collected at 30, 60 and 120 minutes after the treatment of a test compound, and weighed.
The statistical judgment of efficacy was carried out between the control group and the treated group, and determined by Dunnett's test.

| IC50 [1] | Compound | Effect (evacuation) [2] |
| --- | --- | --- |
| 11.9 nM | CCN(CC)C(=O)N1CCC(CN2CCC(NC(=O)c3cc(Cl)c(N)cc3OC)CC2)CC1 [Example 2] | + |
| 15.5 nM | COc1cc(N)c(Cl)cc1C(=O)NC1CCN(CC2CCN(C(=O)N(C(C)C)C(C)C)CC2)CC1 [Example 3] |  |
| 11.9 nM | CCN(C)C(=O)N1CCC(CN2CCC(NC(=O)c3cc(Cl)c(N)cc3OC)CC2)CC1 [Example 4, 4-amino-5-chloro-N-[1-[1-(N-ethyl-N-methylcarbamoyl)-4-piperidinylmethyl]-4-piperidinyl]-2-methoxybenzamide] | ++ |
| 7.6 nM | CCCN(C)C(=O)N1CCC(CN2CCC(NC(=O)c3cc(Cl)c(N)cc3OC)CC2)CC1 [Example 5] |  |
| 6.3 nM | COc1cc(N)c(Cl)cc1C(=O)NC1CCN(CC2CCN(C(=O)N(C)c3ccccc3)CC2)CC1 [Example 8, 4-amino-5-chloro-2-methoxy-N-[1-[1-(N-methyl-N-phenylcarbamoyl)-4-piperidinylmethyl]-4-piperidinyl]benzamide] | ++ |
| 6.8 nM | CCN(CC)C(=S)N1CCC(CN2CCC(NC(=O)c3cc(Cl)c(N)cc3OC)CC2)CC1 [Example 11] |  |
| 19.1 nM | COc1cc(N)c(Cl)cc1C(=O)NC1CCN(CC2CCN(C(=O)N3CCOCC3)CC2)CC1 [Example 13] |  |
| 14.2 nM | COc1cc(N)c(Cl)cc1C(=O)NC1CCN(CC2CCN(S(=O)(=O)N(C)C)CC2)CC1 [Example 16] |  |
| 2.7 nM | CCN(CC)C(=O)N1CCC(CN2CCC(NC(=O)c3cc(Cl)c(N)c4c3OCC4)CC2)CC1 [Example 19, 4-amino-5-chloro-N-[1-(1-diethylcarbamoyl-4-piperidinylmethyl)-4-piperidinyl]-2,3-dihydrobenzo[b]furan-7-carboxamide] | ++ |
| 4.4 nM | CCOc1cc(N)c(Cl)cc1C(=O)NC1CCN(CC2CCN(C(=O)N(CC)CC)CC2)CC1 [Example 27, 4-amino-5-chloro-N-[1-(1-diethylcarbamoyl-4-piperidinylmethyl)-4-piperidinyl]-2-ethoxybenzamide] | ++ |
| 4.3 nM | CC(C)Oc1cc(N)c(Cl)cc1C(=O)NC1CCN(CC2CCN(C(=O)N(C)C)CC2)CC1 [Example 30, 4-amino-5-chloro-N-[1-(1-dimethylcarbamoyl-4-piperidinylmethyl)-4-piperidinyl]-2-isopropoxybenzamide] | ++ |
| 3.2 nM | CCOc1cc(N)c(Cl)cc1C(=O)NC1CCN(CC2CCN(C(=O)N3CCCC3)CC2)CC1 [Example 32] | + |
| 2.3 nM | CCOc1cc(N)c(Cl)cc1C(=O)NC1CCN(CC2CCN(C(=S)N(C)C)CC2)CC1 [Example 33, 4-Amino-5-chloro-N-[1-(1-dimethylthiocarbamoyl-4-piperidinylmethyl)-4-piperidinyl]-2-ethoxybenzamide] |  |
| 8.9 nM | COc1cc(N)c(Br)cc1C(=O)NC1CCN(CC2CCN(C(=O)N3CCCC3)CC2)CC1 [Example 34, 4-amino-5-bromo-2-methoxy-N-[1-[1-(1-pyrrolidinecarbonyl)-4-piperidinylmethyl]-4-piperidinyl]benzamide] | ++ |
| 1.1 nM | COc1cc(N)c(Cl)cc1C(=O)NC1CCN(CC2CCN(C(=O)Nc3ccccc3)CC2)CC1 [Example 37, 4-amino-5-chloro-2-methoxy-N-[1-(1-phenylcarbamoyl-4-piperidinylmethyl)-4-piperidinyl]benzamide] | ++ |
| 1.6 nM | COc1cc(N)c(Cl)cc1C(=O)NC1CCN(CC2CCN(C(=O)Nc3ccc(Cl)cc3)CC2)CC1 [Example 38] |  |
| 2.3 nM | COc1ccc(NC(=O)N2CCC(CN3CCC(NC(=O)c4cc(Cl)c(N)cc4OC)CC3)CC2)cc1 [Example 39] |  |
| 1.7 nM | COc1cc(N)c(Cl)cc1C(=O)NC1CCN(CC2CCN(C(=O)Nc3ccc(C)cc3)CC2)CC1 [Example 40] |  |
| 6.4 nM | CCCNC(=O)N1CCC(CN2CCC(NC(=O)c3cc(Cl)c(N)cc3OC)CC2)CC1 [Example 42] |  |
| 1.6 nM | COc1cc(N)c(Cl)cc1C(=O)NC1CCN(CC2CCN(C(=O)NCc3ccccc3)CC2)CC1 [Example 47] |  |
| 4.4 nM | COc1cc(N)c(Cl)cc1C(=O)NC1CCN(CC2CCN(C(=O)NC3CCCC3)CC2)CC1 [Example 49] |  |
| 1.9 nM | COc1cc(N)c(Cl)cc1C(=O)NC1CCN(CC2CCN(C(=O)NC3CCCCCC3)CC2)CC1 [Example 51] |  |
| 0.36 nM | Nc1c(Cl)cc(C(=O)NC2CCN(CC3CCN(C(=O)Nc4ccccc4)CC3)CC2)c2c1CCO2 [Example 52, 4-amino-5-chloro-N-[1-(1-phenylcarbamoyl-4-piperidinylmethyl)-4-piperidinyl]-2,3-dihydrobenzo[b]furan-7-carboxamide] | ++ |
| 9.8 nM | COc1cc(N)c(Cl)cc1C(=O)NC1CCN(CC2CCN(C(N)=O)CC2)CC1 [Example 53, 4-amino-N-[1-(1-carbamoyl-4-piperidinylmethyl)-4-piperidinyl]-5-chloro-2-methoxybenzamide] |  |

| IC50 [1] | Compound | Effect (evacuation) [2] |
| --- | --- | --- |
| 3.9 nM | COc1ccc(C(=O)N2CCC(CN3CCC(NC(=O)c4cc(Cl)c(N)cc4OC)CC3)CC2)cc1 [Example 60] |  |
| 4.6 nM | COc1cc(N)c(Cl)cc1C(=O)NC1CCN(CC2CCN(C(=O)c3ccc(C)cc3)CC2)CC1 [Example 61] |  |
| 1.4 nM | COc1cc(N)c(Cl)cc1C(=O)NC1CCN(CC2CCN(C(=O)c3cc(Cl)c(N)cc3OC)CC2)CC1 [Example 62] |  |
| 20.7 nM | COCC(=O)N1CCC(CN2CCC(NC(=O)c3cc(Cl)c(N)cc3OC)CC2)CC1 [Example 63] |  |
|  | COCCC(=O)N1CCC(CN2CCC(NC(=O)c3cc(Cl)c(N)cc3OC)CC2)CC1 [Example 64] | + |
| 18 nM | COC(=O)CCCC(=O)N1CCC(CN2CCC(NC(=O)c3cc(Cl)c(N)cc3OC)CC2)CC1 [Example 69] |  |
| 6.8 nM | COc1cc(N)c(Cl)cc1C(=O)NC1CCN(CC2CCN(C(=O)c3ccccc3)CC2)CC1 [Example 72, 4-amino-N-[1-(1-benzoyl-4-piperidinylmethyl)-4-piperidinyl]-5-chloro-2-methoxybenzamide] |  |
| 4.2 nM | COc1cc(N)c(Cl)cc1C(=O)NC1CCN(CC2CCN(C(=O)c3ccc(Cl)cc3)CC2)CC1 [Example 73] |  |
| 9 nM | COc1cc(N)c(Cl)cc1C(=O)NC1CCN(CC2CCN(C(=O)c3cc(OC)c(OC)c(OC)c3)CC2)CC1 [Example 74] |  |
|  | COc1cc(N)c(Cl)cc1C(=O)NC1CCN(CC2CCN(C(C)=O)CC2)CC1 [Example 75] | ++ |
|  | COC(=O)N1CCC(CN2CCC(NC(=O)c3cc(Cl)c(N)cc3OC)CC2)CC1 [Example 76] | ++ |
|  | CCOC(=O)N1CCC(CN2CCC(NC(=O)c3cc(Cl)c(N)cc3OC)CC2)CC1 [Example 77] | ++ |
|  | COc1cc(N)c(Cl)cc1C(=O)NC1CCN(CC2CCN(C=O)CC2)CC1 [Example 79, 4-amino-5-chloro-N-[1-(1-formyl-4-piperidinylmethyl) -4-piperidinyl]-2-methoxybenzamide] | + |
| 14.2 nM | COc1cc(N)c(Cl)cc1C(=O)NC1CCN(CC2CCN(C(C)C(C)=O)CC2)CC1 (stereo not drawn) [Example 84, 4-amino-N-[1-[1-(2-butanon-3-yl)-4-piperidinylmethyl]-4-piperidinyl]-5-chloro-2-methoxybenzamide] |  |
| 18.2 nM | COc1cc(N)c(Cl)cc1C(=O)NC1CCN(CC2CCN(CC(C)=O)CC2)CC1 [Example 85] |  |
| 11.9 nM | COc1cc(N)c(Cl)cc1C(=O)NC1CCN(CC2CCN(CC(=O)C(C)(C)C)CC2)CC1 [Example 87] |  |
| 7.2 nM | COc1cc(N)c(Cl)cc1C(=O)NC1CCN(CC2CCN(CCCC(C)=O)CC2)CC1 [Example 88] |  |
| 6.5 nM | CCC(=O)CCN1CCC(CN2CCC(NC(=O)c3cc(Cl)c(N)cc3OC)CC2)CC1 [Example 89] |  |
|  | CCOC(=O)CN1CCC(CN2CCC(NC(=O)c3cc(Cl)c(N)cc3OC)CC2)CC1 [Example 90] | + |
| 4.1 nM | CCOC(=O)CCCN1CCC(CN2CCC(NC(=O)c3cc(Cl)c(N)cc3OC)CC2)CC1 [Example 92] |  |
| 12.5 nM | CCCCC(C(=O)OCC)N1CCC(CN2CCC(NC(=O)c3cc(Cl)c(N)cc3OC)CC2)CC1 (stereo not drawn) [Example 98] |  |
| 3.9 nM | CCC(=O)CN1CCC(CN2CCC(NC(=O)c3cc(Cl)c(N)c4c3OCC4)CC2)CC1 [Example 99, 4-amino-N-[1-[1-(2-butanon-1-yl)-4-piperidinylmethyl]-4-piperidinyl]-5-chloro-2,3-dihydrobenzo[b]furan-7-carboxamide] |  |
| 1 nM | CCOC(=O)CCCN1CCC(CN2CCC(NC(=O)c3cc(Cl)c(N)c4c3OCC4)CC2)CC1 [Example 100, 4-amino-5-chloro-N-[1-[1-(3-ethoxycarbonylpropyl)-4-piperidinylmethyl]-4-piperidinyl]-2,3-dihydrobenzo[b]furan-7-carboxamide] |  |
